{"source": "patent US11453703B2", "about": "“Heterotandem bicyclic peptide complexes” (BicycleTX Limited, priority 2018, dated 2022)", "biological_target": "CD137 (Homo sapiens, UniProt Q07011)", "sequence (Q07011 24-255)": "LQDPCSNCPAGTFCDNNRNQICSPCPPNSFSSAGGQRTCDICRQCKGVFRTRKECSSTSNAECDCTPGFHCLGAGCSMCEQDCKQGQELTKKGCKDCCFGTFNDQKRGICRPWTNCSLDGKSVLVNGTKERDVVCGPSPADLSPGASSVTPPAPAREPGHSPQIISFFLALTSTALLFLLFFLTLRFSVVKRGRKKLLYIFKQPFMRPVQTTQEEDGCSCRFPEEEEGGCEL", "assay": "CD137 reporter assay, co-culture with EphA2 tumour cells", "format": "cell-based", "design": "host or cells: Jurkat reporter cells", "protocol": "Culture medium referred to as R1 media is prepared by adding 1% FBS to RPMI-1640 (component of Promega kit CS196005). Serial dilutions of test articles in R1 are prepared in a sterile 96 well-plate. Use 25 μl per well of test articles or R1 (as a background control) to designated wells in white cell culture plate. Tumour cells* are harvested and resuspended at a concentration of 400,000 cells/mL in R1 media. Twenty five (25) μL/well tumour cells are used in white cell culture plate. Jurkat cells (Promega kit CS196005, 0.5 mL) are thawed in the water bath and then added to 5 ml pre-warmed R1 medium. Twenty five (25) μL/well Jurkat cells are used in white cell culture plate. Incubate the cells and test articles for 6h at 37° C., 5% CO2. At the end of 6 h, add 75 μl/well Bio-Glo™ (Promega) and incubate for 10 min before reading luminescence in a plate reader (Clariostar, BMG). The fold change relative to cells (Jurkat cells+Cell line used in co-culture) is calculated and plotted in GraphPad Prism as log(agonist) vs response to determine EC50 (nM) and Fold Induction over background (Max)", "key": {"[1]": {"conditions": "tumour target EphA2, co-culture with SC-OV-3, 6 h"}, "[2]": {"conditions": "tumour target EphA2, co-culture with PC3, 6 h"}}, "note": "pEC50: −log10 of the molar value. Starred links: 1 amine or outer side, 2 acyl side, 3 side chain; linkers in the order of their positions; H or OH if unused. Positions of bridges follow the written chain, without caps; N, C: chain ends. Non-standard residues stand in square brackets, D forms with d. Residues, ends and D or L forms follow the SMILES beside them. Chains are numbered I, II in the order given. TATA = O=C(CC[*:1])N1CN(C(=O)CC[*:2])CN(C(=O)CC[*:3])C1; X2 = O=C(CCOCCOCCOCCOCCOCCn1cc(CCC(=O)[*:2])nn1)[*:1]; Hyp = O=C(O)[C@@H]1C[C@@H](O)CN1; hArg = N=C(N)NCCCC[C@H](N)C(=O)O; tBuAla = CC(C)(C)C[C@H](N)C(=O)O; Nle = CCCC[C@H](N)C(=O)O"}
{"smiles": "CCCC[C@@H]1NC(=O)[C@H](Cc2ccc(O)cc2)NC(=O)[C@@H]2CCCN2C(=O)[C@H](CC(=O)O)NC(=O)[C@H](C)NC(=O)[C@H](Cc2ccccc2)NC(=O)[C@@H]2CSCCC(=O)N3CN(CN(C3)C(=O)CCSC[C@@H](C(=O)N[C@@H](CNC(=O)CCOCCOCCOCCOCCOCCOCCOCCOCCOCCOCCOCCOCCn3cc(CCC(=O)NCCC(=O)N(C)CC(=O)N(C)CC(=O)N(C)CC(=O)N(C)CC(=O)N(C)CC(=O)N(C)CC(=O)N(C)CC(=O)N(C)CC(=O)N(C)CC(=O)N(C)CC(=O)N[C@H](C(=O)NCC(=O)N4CCC[C@H]4C(=O)N[C@H]4CSCCC(=O)N5CN6CN(C5)C(=O)CCSC[C@H](NC(=O)[C@@H]5CCCN5C(=O)[C@H]([C@@H](C)O)NC(=O)[C@@H]5CCCN5C(=O)[C@H](CC(=O)O)NC(=O)[C@H](Cc5c[nH]c7ccccc57)NC(=O)[C@H](CC(C)C)NC4=O)C(=O)N[C@@H](C)C(=O)N[C@@H](CC(N)=O)C(=O)N[C@@H](CC(C)C)C(=O)N[C@@H](Cc4c[nH]cn4)C(=O)N[C@@H](CC(C)C)C(=O)N[C@@H](CCCCNC(=N)N)C(=O)N[C@H](C(N)=O)CSCCC6=O)C(C)C)nn3)C(N)=O)NC1=O)C(=O)CCSC[C@H](NC(=O)[C@H](C)NC(C)=O)C(=O)N[C@@H]([C@@H](C)CC)C(=O)N[C@@H](CCC(=O)O)C(=O)N[C@@H](CCC(=O)O)C(=O)NCC(=O)N[C@@H](CCC(N)=O)C(=O)N[C@@H](Cc1ccc(O)cc1)C(=O)N2", "note": "[BCY8943]", "values": [{"measurement": "fold induction at 0.1 µM", "setting": "tumour target EphA2, co-culture with PC3, at 100 nM, read-out: Fold Induction over Background at 100 nM", "result": "< 2"}]}
{"smiles": "CCCC[C@@H]1NC(=O)[C@H](Cc2ccc(O)cc2)NC(=O)[C@@H]2CCCN2C(=O)[C@H](CC(=O)O)NC(=O)[C@H](C)NC(=O)[C@H](Cc2ccccc2)NC(=O)[C@@H]2CSCCC(=O)N3CN(CN(C3)C(=O)CCSC[C@@H](C(=O)N[C@@H](CNC(=O)CCOCCOCCOCCOCCOCCOCCOCCOCCOCCOCCOCCOCCn3cc(CCC(=O)NCCC(=O)N(C)CC(=O)N(C)CC(=O)N(C)CC(=O)N(C)CC(=O)N(C)CC(=O)N(C)CC(=O)N(C)CC(=O)N(C)CC(=O)N(C)CC(=O)N(C)CC(=O)N[C@@H](C)C(=O)N[C@@H](CCCCNC(=N)N)C(=O)N[C@@H](CC(=O)O)C(=O)N[C@H]4CSCCC(=O)N5CN6CN(C5)C(=O)CCSC[C@H](NC(=O)[C@H](CC(C)C)NC(=O)[C@@H]5CCCN5C(=O)[C@H](CC(N)=O)NC(=O)[C@H](C(C)C)NC(=O)[C@H](CC(C)C)NC(=O)[C@@H]5C[C@@H](O)CN5C4=O)C(=O)N[C@@H](CC(C)C)C(=O)N[C@@H](Cc4c[nH]cn4)C(=O)N4CCC[C@H]4C(=O)N[C@H](CC(=O)O)C(=O)N[C@@H](Cc4c[nH]c5ccccc45)C(=O)N[C@@H](CCCCNC(=N)N)C(=O)N[C@H](C(N)=O)CSCCC6=O)nn3)C(N)=O)NC1=O)C(=O)CCSC[C@H](NC(C)=O)C(=O)N[C@@H](CC(C)(C)C)C(=O)N1CCC[C@H]1C(=O)N[C@@H](CCC(=O)O)C(=O)N[C@H](C)C(=O)N1CCC[C@H]1C(=O)N[C@@H](Cc1ccc(O)cc1)C(=O)N2", "note": "[BCY9173]", "values": [{"measurement": "Fold Induction over Background", "setting": "[1]", "result": 21, "unit": "fold"}]}
{"smiles": "CCCC[C@@H]1NC(=O)[C@H](Cc2ccc(O)cc2)NC(=O)[C@@H]2CCCN2C(=O)[C@H](CC(=O)O)NC(=O)[C@H](C)NC(=O)[C@H](Cc2ccccc2)NC(=O)[C@@H]2CSCCC(=O)N3CN(CN(C3)C(=O)CCSC[C@@H](C(=O)N[C@@H](CNC(=O)CCOCCOCCOCCOCCOCCOCCOCCOCCOCCOCCOCCOCCOCCOCCOCCOCCOCCOCCOCCOCCOCCOCCOCCOCCOCCC(=O)NCCC(=O)N(C)CC(=O)N(C)CC(=O)N(C)CC(=O)N(C)CC(=O)N(C)CC(=O)N(C)CC(=O)N(C)CC(=O)N(C)CC(=O)N(C)CC(=O)N(C)CC(=O)N[C@@H](C)C(=O)N[C@@H](CCCCNC(=N)N)C(=O)N[C@@H](CC(=O)O)C(=O)N[C@H]3CSCCC(=O)N4CN5CN(C4)C(=O)CCSC[C@H](NC(=O)[C@H](CC(C)C)NC(=O)[C@@H]4CCCN4C(=O)[C@H](CC(N)=O)NC(=O)[C@H](C(C)C)NC(=O)[C@H](CC(C)C)NC(=O)[C@@H]4C[C@@H](O)CN4C3=O)C(=O)N[C@@H](CC(C)C)C(=O)N[C@@H](Cc3c[nH]cn3)C(=O)N3CCC[C@H]3C(=O)N[C@H](CC(=O)O)C(=O)N[C@@H](Cc3c[nH]c4ccccc34)C(=O)N[C@@H](CCCCNC(=N)N)C(=O)N[C@H](C(N)=O)CSCCC5=O)C(N)=O)NC1=O)C(=O)CCSC[C@H](NC(=O)[C@H](C)NC(C)=O)C(=O)N[C@@H]([C@@H](C)CC)C(=O)N[C@@H](CCC(=O)O)C(=O)N[C@@H](CCC(=O)O)C(=O)NCC(=O)N[C@@H](CCC(N)=O)C(=O)N[C@@H](Cc1ccc(O)cc1)C(=O)N2", "note": "[BCY9758]", "values": [{"measurement": "pEC50", "setting": "[1]", "result": 8.92}, {"measurement": "Fold Induction over Background", "setting": "[1]", "result": 7, "unit": "fold"}]}
{"smiles": "CCCC[C@@H]1NC(=O)[C@H](Cc2ccc(O)cc2)NC(=O)[C@@H]2CCCN2C(=O)[C@H](CC(=O)O)NC(=O)[C@H](C)NC(=O)[C@H](Cc2ccccc2)NC(=O)[C@@H]2CSCCC(=O)N3CN(CN(C3)C(=O)CCSC[C@@H](C(=O)N[C@@H](C)C(N)=O)NC1=O)C(=O)CCSC[C@H](NC(C)=O)C(=O)N[C@@H](CC(C)(C)C)C(=O)N1CCC[C@H]1C(=O)N[C@@H](CCCCNC(=O)CCOCCOCCOCCOCCOCCOCCOCCOCCOCCOCCOCCOCCn1cc(CCC(=O)NCCC(=O)N(C)CC(=O)N(C)CC(=O)N(C)CC(=O)N(C)CC(=O)N(C)CC(=O)N(C)CC(=O)N(C)CC(=O)N(C)CC(=O)N(C)CC(=O)N(C)CC(=O)N[C@@H](C)C(=O)N[C@@H](CCCCNC(=N)N)C(=O)N[C@@H](CC(=O)O)C(=O)N[C@H]3CSCCC(=O)N4CN5CN(C4)C(=O)CCSC[C@H](NC(=O)[C@H](CC(C)C)NC(=O)[C@@H]4CCCN4C(=O)[C@H](CC(N)=O)NC(=O)[C@H](C(C)C)NC(=O)[C@H](CC(C)C)NC(=O)[C@@H]4C[C@@H](O)CN4C3=O)C(=O)N[C@@H](CC(C)C)C(=O)N[C@@H](Cc3c[nH]cn3)C(=O)N3CCC[C@H]3C(=O)N[C@H](CC(=O)O)C(=O)N[C@@H](Cc3c[nH]c4ccccc34)C(=O)N[C@@H](CCCCNC(=N)N)C(=O)N[C@H](C(N)=O)CSCCC5=O)nn1)C(=O)N[C@H](C)C(=O)N1CCC[C@H]1C(=O)N[C@@H](Cc1ccc(O)cc1)C(=O)N2", "note": "[BCY10568]", "values": [{"measurement": "Fold Induction over Background", "setting": "[2]", "result": 32, "unit": "fold"}]}
{"smiles": "CCCC[C@@H]1NC(=O)[C@H](Cc2ccc(O)cc2)NC(=O)[C@@H]2CCCN2C(=O)[C@H](CC(=O)O)NC(=O)[C@H](C)NC(=O)[C@H](Cc2ccccc2)NC(=O)[C@@H]2CSCCC(=O)N3CN(CN(C3)C(=O)CCSC[C@@H](C(=O)N[C@@H](C)C(N)=O)NC1=O)C(=O)CCSC[C@H](NC(C)=O)C(=O)N[C@@H](CC(C)(C)C)C(=O)N1CCC[C@H]1C(=O)N[C@@H](CCC(=O)O)C(=O)N[C@H](CCCCNC(=O)CCOCCOCCOCCOCCOCCOCCOCCOCCOCCOCCOCCOCCn1cc(CCC(=O)NCCC(=O)N(C)CC(=O)N(C)CC(=O)N(C)CC(=O)N(C)CC(=O)N(C)CC(=O)N(C)CC(=O)N(C)CC(=O)N(C)CC(=O)N(C)CC(=O)N(C)CC(=O)N[C@@H](C)C(=O)N[C@@H](CCCCNC(=N)N)C(=O)N[C@@H](CC(=O)O)C(=O)N[C@H]3CSCCC(=O)N4CN5CN(C4)C(=O)CCSC[C@H](NC(=O)[C@H](CC(C)C)NC(=O)[C@@H]4CCCN4C(=O)[C@H](CC(N)=O)NC(=O)[C@H](C(C)C)NC(=O)[C@H](CC(C)C)NC(=O)[C@@H]4C[C@@H](O)CN4C3=O)C(=O)N[C@@H](CC(C)C)C(=O)N[C@@H](Cc3c[nH]cn3)C(=O)N3CCC[C@H]3C(=O)N[C@H](CC(=O)O)C(=O)N[C@@H](Cc3c[nH]c4ccccc34)C(=O)N[C@@H](CCCCNC(=N)N)C(=O)N[C@H](C(N)=O)CSCCC5=O)nn1)C(=O)N1CCC[C@H]1C(=O)N[C@@H](Cc1ccc(O)cc1)C(=O)N2", "note": "[BCY10570]", "values": [{"measurement": "pEC50", "setting": "[2]", "result": 9.39}, {"measurement": "Fold Induction over Background", "setting": "[2]", "result": 38, "unit": "fold"}]}
{"smiles": "CCCC[C@@H]1NC(=O)[C@H](Cc2ccc(O)cc2)NC(=O)[C@@H]2CCCN2C(=O)[C@H](CC(=O)O)NC(=O)[C@H](C)NC(=O)[C@H](Cc2ccccc2)NC(=O)[C@@H]2CSCCC(=O)N3CN(CN(C3)C(=O)CCSC[C@@H](C(=O)N[C@@H](C)C(N)=O)NC1=O)C(=O)CCSC[C@H](NC(C)=O)C(=O)N[C@@H](CC(C)(C)C)C(=O)N1CCC[C@H]1C(=O)N[C@@H](CCCCNC(=O)CCc1cn(CCOCCOCCOCCOCCOCCC(=O)N[C@@H](C)C(=O)N[C@@H](CCCCNC(=N)N)C(=O)N[C@@H](CC(=O)O)C(=O)N[C@H]3CSCCC(=O)N4CN5CN(C4)C(=O)CCSC[C@H](NC(=O)[C@H](CC(C)C)NC(=O)[C@@H]4CCCN4C(=O)[C@H](CC(N)=O)NC(=O)[C@H](C(C)C)NC(=O)[C@H](CC(C)C)NC(=O)[C@@H]4C[C@@H](O)CN4C3=O)C(=O)N[C@@H](CC(C)C)C(=O)N[C@@H](Cc3c[nH]cn3)C(=O)N3CCC[C@H]3C(=O)N[C@H](CC(=O)O)C(=O)N[C@@H](Cc3c[nH]c4ccccc34)C(=O)N[C@@H](CCCCNC(=N)N)C(=O)N[C@H](C(N)=O)CSCCC5=O)nn1)C(=O)N[C@H](C)C(=O)N1CCC[C@H]1C(=O)N[C@@H](Cc1ccc(O)cc1)C(=O)N2", "note": "[BCY10574] (I: A[hArg]DC[Hyp]LVNPLCLHP[dD]W[hArg]C-NH2 / II: Ac-C[tBuAla]PK[dA]PYCFADPY[Nle]CA-NH2; linker I:4-I:11-I:18, II:1-II:8-II:15 via TATA; linker I:N-II:4 via X2)", "values": [{"measurement": "pEC50", "setting": "[2]", "result": 9.00}, {"measurement": "Fold Induction over Background", "setting": "[2]", "result": 32, "unit": "fold"}]}
